Test results from patent US11814372B2, “Agonists of EPHA and their uses” (CASE WESTERN RESERVE UNIVERSITY, priority 2017, dated 2023).
“Also recorded” adds a separate entry of the source.

Legend:
ERK and Akt = ERK and Akt inhibition in LK133A-Vec and LK133A-A2 liver epithelial cells (immunoblot); type: cell-based, mice
Method: Cells were plated in 24-well dishes at a density of 100,000 cells/well and grown for 24 hours prior to stimulation with appropriate compounds and ephrins for the given amounts of time. Compounds were prepared in DMSO at 500 times the final concentrations and 0.2% DMSO was used as vehicle control. Following treatment, cells were lysed directly in SDS Gel Loading Buffer and immunoblotted as described previously. Immunoprecipitation and immunofluorescence staining was performed as described. For immunoprecipitation, 300,000 cells/well were plated in 6-well dishes and lysed in modified RIPA Buffer (20 mM Tris-HCl pH 7.4, 20 mM NaF, 150 mM NaCl, 10% glycerol, 0.1% SDS, 0.5% DCA, 2 mM EDTA, 1% Triton X-100) following treatment. Either […] of ephrin-A1-Fc, or […] of EphA2 mouse monoclonal antibody (Clone D7, Millipore) were used, and mouse IgG was used as a negative control for EphA2 IP.
To address this question, we utilized an immortalized liver epithelial cell line, LK133A, isolated from a hepatoma induced by DEN in EphA2 knockout mice. Retroviral vector was used to restore EphA2 expression in these cells (LK133A-A2), and cells transduced with an empty vector were used as control (LK133AVec).

EphA1 = biological target: T1, EphA1 (Homo sapiens, UniProt P21709); experiment: Eph receptor activation in HEK 293 cells overexpressing EphA1; type: cell-based; details: HEK 293 cells overexpressing EphA1, same concentrations, 60 minutes
T1 construct: expressed in transfected cells; host or cells: HEK 293
T1 sequence (P21709 26-976): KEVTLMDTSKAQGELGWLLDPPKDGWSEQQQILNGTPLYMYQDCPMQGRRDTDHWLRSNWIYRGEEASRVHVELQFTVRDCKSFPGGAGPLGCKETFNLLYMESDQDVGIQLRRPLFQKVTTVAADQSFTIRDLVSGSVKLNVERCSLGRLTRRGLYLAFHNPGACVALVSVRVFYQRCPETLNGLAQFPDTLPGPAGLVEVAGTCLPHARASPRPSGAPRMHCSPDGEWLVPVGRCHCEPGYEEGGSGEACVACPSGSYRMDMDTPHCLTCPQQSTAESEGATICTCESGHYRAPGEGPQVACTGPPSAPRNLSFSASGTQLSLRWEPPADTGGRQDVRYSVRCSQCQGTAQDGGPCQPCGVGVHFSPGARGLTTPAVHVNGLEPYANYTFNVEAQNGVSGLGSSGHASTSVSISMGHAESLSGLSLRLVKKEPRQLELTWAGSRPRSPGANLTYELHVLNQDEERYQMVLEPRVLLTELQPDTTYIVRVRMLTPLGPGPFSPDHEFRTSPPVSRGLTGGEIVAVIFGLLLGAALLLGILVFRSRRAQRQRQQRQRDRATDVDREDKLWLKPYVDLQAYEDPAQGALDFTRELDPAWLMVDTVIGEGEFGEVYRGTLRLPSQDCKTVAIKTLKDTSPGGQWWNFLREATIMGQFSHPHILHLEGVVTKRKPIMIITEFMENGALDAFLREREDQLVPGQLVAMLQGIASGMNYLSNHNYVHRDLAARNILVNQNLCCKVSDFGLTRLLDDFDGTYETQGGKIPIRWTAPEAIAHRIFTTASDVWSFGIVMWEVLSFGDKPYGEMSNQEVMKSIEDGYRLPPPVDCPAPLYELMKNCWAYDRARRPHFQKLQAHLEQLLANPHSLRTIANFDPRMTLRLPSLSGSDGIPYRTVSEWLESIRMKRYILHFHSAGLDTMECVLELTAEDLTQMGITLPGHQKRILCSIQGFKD
Method: Cells were plated in 24-well dishes at a density of 100,000 cells/well and grown for 24 hours prior to stimulation with appropriate compounds and ephrins for the given amounts of time. Compounds were prepared in DMSO at 500 times the final concentrations and 0.2% DMSO was used as vehicle control. Following treatment, cells were lysed directly in SDS Gel Loading Buffer and immunoblotted as described previously. […] For this purpose, HEK 293 cell lines overexpressing EphA1, EphA2, EphA3, EphA4, and EphB3 kinases were utilized.

PC3-DAB2IP KD cells = experiment: In vivo metastasis assay, orthotopic PC3-DAB2IP KD prostate xenograft
Method: PC-3 cells (from ATCC) engineered to express both GFP and DAB2IP shRNA were characterized previously. Cells were suspended in serum free medium and 2,000 cells injected directly into the prostate glands of 7 week old NCr athymic nu/nu mice. Three days after injection, mice were divided into two groups, one receiving vehicle alone (5% DMSO/10% Cremophor/PBS) and another 50 mg/kg doxazosin via intraperitoneal injection daily for 10 days. Mice were sacrificed 14 days later and intact primary tumors were imaged under a UV light box with a Digital camera. Lungs were dissected into separate lobes and GFP-expressing metastases were imaged using an inverted fluorescent microscope (Leica). Metastases were enumerated in the two largest lung lobes and placed into size categories based upon their diameters, measured in number of cells (1-10 cells). Total metastatic burden was calculated in each mouse using the following equation: [burden=Σ (# of foci×focus diameter)].
Historically, studies of prostate cancer metastasis in the preclinical setting have been hampered by the lack of human cell lines that can produce significant metastasis in a reproducible manner. […] We took advantage of this newly established model system to test how doxazosin can affect metastasis of prostate cancer. To this end, PC3-DAB2IP KD cells were injected orthotopically into the prostate glands of nude mice. Three days later, recipient mice were subject to systemic treatment by daily i.p. injection of either vehicle control, or 50 mg/kg doxazosin for 10 days. Since these cells also expressed green fluorescent protein (GFP), freshly dissected primary tumors could be readily visualized in a GFP light box (FIG. 7A top panels), and distal metastases to lungs and lymph nodes could be observed and quantified under a fluorescent microscope (FIG. 7A lower panels).
Next, we determined whether doxazosin treatment might impact overall survival. Nude mice orthotopically implanted with the PC3-DAP2IP KD cells were treated for 10 days with either doxazosin, or vehicle control and monitored for survival.

[1] = nude mice, 50 mg/kg i.p. daily for 10 days

COc1cc2nc(N3CCN(C(=O)C4COc5ccccc5O4)CC3)nc(N)c2cc1OC (centres unmarked) [doxazosin]
ERK and Akt inhibition after reintroduction of EphA2 expression (ERK and Akt; LK133A-A2 cells): restored ERK and Akt inhibition | inhibition of ERK and Akt activities in the absence of EphA2 (ERK and Akt; LK133A-Vec cells (EphA2 knockout, empty vector)): neither doxazosin nor ephrin-A1-Fc was able to inhibit ERK and Akt activities; also recorded: notable increase in ERK and Akt activation | EphA1 activation, Eph receptor panel (EphA1): no activation of EphA1 | overall survival (PC3-DAB2IP KD cells; at 27 days after cell implantation, treated for 10 days, vehicle 30%): 70% | behavioral abnormalities (PC3-DAB2IP KD cells; [1]): nor were there any signs of behavioral abnormalities | body weight compared with vehicle control (PC3-DAB2IP KD cells; [1]): no changes in body weight | number of lung metastases compared to vehicle control (PC3-DAB2IP KD cells; [1]): significant reduction in the number of lung metastases | reduction in primary tumor sizes (PC3-DAB2IP KD cells; [1]): the difference was not statistically significant | sizes of lung metastases compared to vehicle-treated mice (PC3-DAB2IP KD cells; [1]): significantly smaller | total metastatic burden (numbers and sizes of metastases) (PC3-DAB2IP KD cells; [1]): even more significantly reduced | tumor cell dissemination to local lymph nodes (PC3-DAB2IP KD cells; [1]): reduced, but not to a significant extent
